How the values were obtained:
Format in all cases: in vivo
[1] = tested on: living plants of Arabidopsis thaliana; test: Spraying the quercetin plant senescence accelerator onto living plants of Arabidopsis thaliana; details: attached leaves sprayed at 10 and 20 μmol/L; FIG. 3B
Excerpt: Experimental test 3: Effects of spraying the quercetin plant senescence accelerator onto living plants of Arabidopsis thaliana Living plants of Arabidopsis thaliana were sprayed with the quercetin plant senescence accelerator finished products prepared by the preparation method provided in one of Embodiments 1-3 of the present application, and the accelerating effect of the accelerator on the senescence of plant leaves was observed. The specific results were shown in FIGS. 3A-3C, and the experimental groups and their results were described below. Experimental group: living plants of Arabidopsis thaliana were sprayed with the quercetin plant senescence accelerators with concentrations of 10 μmol/L and 20 μmol/L in Embodiment 2, respectively. Control group: living plants Arabidopsis thaliana were sprayed with the 1/2 MS solution of 2-(N-morpholino)ethanesulfonic acid in which the concentration of 2-(N-morpholino)ethanesulfonic acid was 3 mmol/L.

[2] = tested on: Honghuadajinyuan tobacco; test: Spraying the quercetin plant senescence accelerator onto common tobacco in fields; details: 10 μmol/L; attached leaves of tobacco; FIG. 5B
Excerpt: Experimental test 5: Effects of spraying the quercetin plant senescence accelerator onto common tobacco in fields It could be found from the experimental test 4 that 10 μmol/L was the optimal concentration of the quercetin plant senescence accelerator to accelerate mature and yellowing of tobacco leaves. Further, Honghuadajinyuan tobacco was sprayed with the quercetin plant senescence accelerator finished product, and the accelerating effect of the accelerator on the senescence of plant leaves was observed. The specific results were shown in FIGS. 5A-5D, and the experimental groups and their results were described below. The quercetin plant senescence accelerator having a concentration of 0 (the control group) and the quercetin plant senescence accelerator having a concentration of 10 μmol/L were sprayed onto living plants of common tobacco.

[3] = tested on: living plants of Nicotiana benthamiana; test: Spraying the quercetin plant senescence accelerator onto attached leaves of Nicotiana benthamiana; details: attached leaves sprayed at 1, 10 and 20 μmol/L; FIG. 4B
Excerpt: Experimental test 4: Effects of spraying the quercetin plant senescence accelerator onto attached leaves of Nicotiana benthamiana Living plants of Nicotiana benthamiana were sprayed with the quercetin plant senescence accelerator finished product in Embodiment 3, and the accelerating effect of the accelerator on the senescence of plant leaves was observed. The specific results were shown in FIGS. 4A-4C, and the experimental groups and their results were described below. Experimental group: living plants of Nicotiana benthamiana were sprayed with the quercetin plant senescence accelerators having concentrations of 1 μmol/L, 10 μmol/L and 20 μmol/L, respectively. Control group: living plants of Nicotiana benthamiana were sprayed with the 1/2 MS solution of 2-(N-morpholino)ethanesulfonic acid in which the concentration of 2-(N-morpholino)ethanesulfonic acid was 2.9 mmol/L.

Measured: content of chlorophyll in leaves

O=c1c(O)c(-c2ccc(O)c(O)c2)oc2cc(O)cc(O)c12 [quercetin]
significantly reduced: all assays above

— patent publication US20210321612A1, “USE OF QUERCETIN IN PLANT AGING PROMOTER” (TOBACCO RESEARCH INSTITUTE OF CHINESE ACADEMY OF …, priority 2019, published 2021)
